Molecular target: T1, ligand binding domain of ERRγ (Homo sapiens, UniProt P62508)
T1 construct: 6His; made in house; host or cells: E. coli BL21(DE3)
T1 sequence (P62508 229-458): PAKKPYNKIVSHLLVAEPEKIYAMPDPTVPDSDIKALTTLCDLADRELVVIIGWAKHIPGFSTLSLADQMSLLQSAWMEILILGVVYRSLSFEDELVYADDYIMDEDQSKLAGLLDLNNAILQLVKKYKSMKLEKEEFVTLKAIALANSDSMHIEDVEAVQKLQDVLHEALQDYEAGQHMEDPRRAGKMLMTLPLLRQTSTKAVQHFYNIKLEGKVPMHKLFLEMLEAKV
Experiment: ThermoFluor thermal shift assay, ERRγ ligand binding domain
Conditions: 0.1 mg/mL protein, 25 mM HEPES pH 8.0, Tm free protein 49.6 °C
Experimental: The vector was in E. coli BL21(DE3) and cultured in Minimal media (M9) at 37° C. to an OD595 0.6-0.8, followed by induction at 15° C. with 0.4 mM IPTG for 20 hours. The next day, the culture was harvested and lysed in buffer A (Buffer A: 20 mM Tris-HCl, pH 7.5, 0.4 M NaCl and 5 mM Imidazole) using an Emulsiflex-C5 french press (Avestin). Lysates were spun at 40,000×g for 45 minutes to remove insoluble material. The clarified lysate was applied on a Ni-NTA column and eluted with a linear gradient of imidazole. The protein was further purified by applying the eluent on a Superdex 200 HR 10/30 column (Amersham Pharmacia Biotech) equilibrated with Buffer B (Buffer B: 20 mM Tris-HCl pH 7.5, 0.2M NaCl, 1 mM EDTA and 1 mM DTT). […] Fractions were pulled and concentrated to 4 mg/ml and frozen in liquid nitrogen and stored at −80° C.
The ligand binding domain of ERRγ was screened against a library of known estrogen activators and a generic drug library using ThermoFluor®. ThermoFluor® is a miniaturized thermal shift assay, that has been developed for HTS applications; as a secondary assay for confirmation and characterization of hits; and as a functional assay to characterize orphan proteins. ThermoFluor® exploits the well-described phenomenon of ligand induced stabilization of macromolecules. Ligand binding energy adds directly to the ground state energy of a macromolecule and results in increased thermal stability. The degree of stabilization is proportional to the binding affinity of the ligand for the macromolecule.
Assay plates were prepared by dispensing 2 μL of a protein-dye solution and 2 μL of the test compound in a 384-well plate. […] Finally 1 μL of mineral oil was dispensed on top to prevent evaporation during the high throughput screen (HTS). ThermoFluor® is an HTS assay that measures protein unfolding based on fluorescence detection of the denatured form of the protein. The reporter for the protein unfolding event is the environmentally sensitive dye ANS that is incorporated in the screening buffer. During a typical experiment the 384-well plate is heated at a ramping rate of 1° C./min and the thermal unfolding of the protein is monitored at 1° C. intervals by measuring fluorescence changes detected through a CCD camera. Captured images are integrated and a melting curve is generated that relates fluorescence to fraction of unfolded protein as a function of temperature. […] Hits were identified from the screen by measuring an increase in the melting temperature of the protein.
In order to estimate binding affinities, it was taken into account that the oligomeric state of ERRγ which is a dimer (N2), and that of a single ligand (Lf) can interact per monomer subunit with equal affinity. The melting curve for such a system is described by the following three equilibria:
To compare dissociation constants at a common reference temperature, Tref, the following equation was used: […]
In the thermodynamic treatment of the data the following assumptions were made: i) the small ligand interacts only with the folded state of the protein, ii) the reactions are reversible; iii) the unfolding protein reaction is a two-state process and iv) ideal dilute solutions are being used (specific activity for protein and ligands is equal to 1).

Compound: Cc1cc(O)ccc1Cl [ClCH3Ph, 4-chloro, 3-methyl phenol]
- ΔTm, thermal stabilization of ERRγ (100 μM test compound): 3.9 °C
- ΔTm at 100 µM (pH 8, read-out: ΔTm, thermal stabilization of ERRγ, 100 μM test compound): 4 to 5.7 °C

Source: patent US7655756B2 (Johnson & Johnson Pharmaceutical Research & Development, LLC, priority 2005, dated 2010)
